# In US9556169B2, “Compounds and compositions for the treatment of parasitic diseases” (NOVARTIS AG, priority 2012, dated 2017):
# System: P. falciparum (NF54 or 3D7 strain)
# Assay: P. falciparum proliferation assay in infected human blood cells (SYBR Green)
# Format: cell-based
# Settings: Plasmodium falciparum, Erythrocyte, 72 h, read-out: EC50 (nM), inhibitory efficacy in delaying P. falciparum proliferation in infected human blood cells
# Experimental: Assay for P. falciparum Proliferation in Infected Human Blood Cells
# Compounds of the invention can be assayed to measure their capacity to inhibit proliferation of P. falciparum parasitemia in infected red blood cells. This parasite proliferation assay measures the increase in parasite DNA content using a DNA intercalating dye, SYBR Green® (INVITROGEN®) which has a high affinity for double stranded DNA.
# NF54 or 3D7 P. falciparum strain is grown in complete culturing media until parasitemia reaches 3% to 8% with O+ human erythrocytes. […] 20 μl of screening media is dispensed into 384 well assay plates. 50 nl of compounds of the invention (in DMSO), including antimalarial controls (mefloquine, pyrimethamine and artemisinin), are then transferred into the assay plates, as well as DMSO alone to serve as a negative control for inhibition. Then 30 μl of a suspension of a NF54 or 3D7 P. falciparum infected erythrocytes in screening media is dispensed into the assay plates such that the final hematocrit is 2.5% with a final parasitemia of 0.3%. The plates are placed in a 37° C. incubator for 72 hours in a low oxygen environment containing 93% N2, 4% CO2, and 3% O2 gas mixture. 10 μl of lysis buffer (saponin, triton-X, EDTA) containing a 10× solution of SYBR Green I® in RPMI media is dispensed into the plates. The plates are lidded and kept at room temperature overnight for the lysis of the infected red blood cells. The fluorescence intensity is measured (excitation 425 nm, emission 530 nm) using the Envision™ system (Perkin Elmer). The percentage inhibition of 50%, EC50, is calculated for each compound.
row,Compound,EC50 [nM]
1,"N#Cc1ccc(N(C(=O)c2ccn3ncc(-c4ccc(C(N)=O)cn4)c3c2)C2CC2)cc1 [Example 142, 3-(5-Carbamoylpyridin-2-yl)-N-(4-cyanophenyl)-N-cyclopropylpyrazolo[1,5-a]pyridine-5-carboxamide]",48

# Same assay, conditions: Plasmodium falciparum, Erythrocyte; infected human erythrocytes, 72 hours, SYBR Green fluorescence; read-out: EC50 (nM), inhibitory efficacy in delaying P. falciparum proliferation in infected human blood cells
row,EC50 [nM],Compound
1,6160,"CN(C(=O)c1ccn2ncc(-c3ccc(C(=O)O)cc3)c2c1)c1ccc(C#N)cn1 [Example 101, 4-(5-((5-Cyanopyridin-2-yl)(methyl)carbamoyl)pyrazolo[1,5-a]pyridin-3-yl)benzoic acid]"
2,935,"N#Cc1ccc(N(CCO)C(=O)c2ccn3ncc(-c4ccc(C(N)=O)cc4)c3c2)cc1 [Example 105, 3-(4-Carbamoylphenyl)-N-(4-cyanophenyl)-N-(2-hydroxyethyl)pyrazolo[1,5-a]pyridine-5-carboxamide]"
3,521,"CNC(=O)c1ccc(-c2cnn3ccc(C(=O)Nc4ccc(C#N)cn4)cc23)cc1 [Example 106, N-(5-Cyanopyridin-2-yl)-3-(4-(methylcarbamoyl)phenyl)pyrazolo[1,5-a]pyridine-5-carboxamide]"
4,9,"N#Cc1ccc(N(C(=O)c2ccn3ncc(-c4ccc(C(N)=O)cc4)c3c2)C2CC2)nc1 [Example 120, 3-(4-Carbamoylphenyl)-N-(5-cyanopyridin-2-yl)-N-cyclopropylpyrazolo[1,5-a]pyridine-5-carboxamide]"
5,1160,"CC(C)NC(=O)c1ccc(-c2cnn3ccc(C(=O)N(c4ccc(C#N)cn4)C4CC4)cc23)cc1 [Example 121, N-(5-Cyanopyridin-2-yl)-N-cyclopropyl-3-(4-(isopropylcarbamoyl)phenyl)pyrazolo[1,5-a]pyridine-5-carboxamide]"
6,> 10000,"CNC(=O)c1ccc(-c2cnn3ccc(C(=O)N(C)c4ccc(OC)nc4)cc23)cc1 [Example 122, N-(6-Methoxypyridin-3-yl)-N-methyl-3-(4-(methylcarbamoyl)phenyl)pyrazolo[1,5-a]pyridine-5-carboxamide]"
7,393,"N#Cc1ccc(N(C(=O)c2ccn3ncc(-c4ccc(C(=O)NC5CC5)cc4)c3c2)C2CC2)nc1 [Example 123, N-(5-Cyanopyridin-2-yl)-N-cyclopropyl-3-(4-(cyclopropylcarbamoyl)phenyl)pyrazolo[1,5a]pyridine-5-carboxamide]"
8,19,"CNC(=O)c1ccc(-c2cnn3ccc(C(=O)N(c4ccc(Cl)cn4)C4CC4)cc23)cc1 [Example 124, N-(5-Chloropyridin-2-yl)-N-cyclopropyl-3-(4-(methylcarbamoyl)phenyl)pyrazolo[1,5-a]pyridine-5-carboxamide]"
9,80,"CNC(=O)c1ccc(-c2cnn3ccc(C(=O)N(c4ccc(F)cn4)C4CC4)cc23)cc1 [Example 125, N-Cyclopropyl-N-(5-fluoropyridin-2-yl)-3-(4-(methylcarbamoyl)phenyl)pyrazolo[1,5a]pyridine-5-carboxamide]"
10,67,"CNC(=O)c1ccc(-c2cnn3ccc(C(=O)N(c4ccc(C#N)cn4)C4CCCC4)cc23)cc1 [Example 126, N-(5-Cyanopyridin-2-yl)-N-cyclopentyl-3-(4-(methylcarbamoyl)phenyl)pyrazolo[1,5-a]pyridine-5-carboxamide]"
11,49,"CCNC(=O)c1ccc(-c2cnn3ccc(C(=O)N(c4ccc(C#N)cn4)C4CC4)cc23)cc1 [Example 127, N-(5-Cyanopyridin-2-yl)-N-cyclopropyl-3-(4-(ethylcarbamoyl)phenyl)pyrazolo[1,5-a]pyridine-5-carboxamide]"
12,4270,"CNC(=O)c1ccc(-c2cnn3ccc(C(=O)N(c4ccc(C(=O)O)cn4)C4CC4)cc23)cc1 [Example 128, 6-(N-Cyclopropyl-3-(4-(methylcarbamoyl)phenyl)pyrazolo[1,5-a]pyridine-5-carboxamido) nicotinic acid]"
13,2440,"CNC(=O)c1ccc(-c2cnn3ccc(C(=O)N(c4ccc(C(N)=O)cn4)C4CC4)cc23)cc1 [Example 129, N-(5-Carbamoylpyridin-2-yl)-N-cyclopropyl-3-(4-(methylcarbamoyl)phenyl)pyrazolo[1,5-a]pyridine-5-carboxamide]"
14,12,"CNC(=O)c1ccc(-c2cnn3ccc(C(=O)N(c4ccc(F)c(F)c4)C4CC4)cc23)cc1 [Example 130, N-Cyclopropyl-N-(3,4-difluorophenyl)-3-(4-(methylcarbamoyl)phenyl)pyrazolo[1,5-a]pyridine-5-carboxamide]"
15,324,"N#Cc1ccc(N(C(=O)c2ccn3ncc(-c4ccc(C(=O)NC5COC5)cc4)c3c2)C2CC2)nc1 [Example 131, N-(5-Cyanopyridin-2-yl)-N-cyclopropyl-3-(4-(oxetan-3-ylcarbamoyl)phenyl)pyrazolo[1,5-a]pyridine-5-carboxamide]"
16,29,"CNC(=O)c1ccc(-c2cnn3ccc(C(=O)N(c4ccc(C(F)(F)F)cn4)C4CC4)cc23)cc1 [Example 132, N-Cyclopropyl-3-(4-(methylcarbamoyl)phenyl)-N-(5-(trifluoromethyl)pyridin-2-yl)pyrazolo[1,5-a]pyridine-5-carboxamide]"
17,4,"N#Cc1ccc(N(C(=O)c2ccn3ncc(-c4ccc(C(N)=O)cc4)c3c2)C2CC2)cc1 [Example 134, 3-(4-carbamoylphenyl)-N-(4-cyanophenyl)-N-cyclopropylpyrazolo[1,5-a]pyridine-5-carboxamide]"
18,1,"NC(=O)c1ccc(-c2cnn3ccc(C(=O)N(c4ccc(F)c(F)c4)C4CC4)cc23)cc1 [Example 135, 3-(4-Carbamoylphenyl)-N-cyclopropyl-N-(3,4-difluorophenyl)pyrazolo[1,5-a]pyridine-5-carboxamide]"
19,10,"N#Cc1ccc(N(C(=O)c2ccn3ncc(-c4ccc(C(N)=O)nc4)c3c2)C2CC2)cc1 [Example 138, 3-(6-Carbamoylpyridin-3-yl)-N-(4-cyanophenyl)-N-cyclopropylpyrazolo[1,5-a]pyridine-5-carboxamide]"
20,30,"N#Cc1ccc(N(C(=O)c2ccn3ncc(-c4ccc(C(N)=O)cn4)c3c2)C2CC2)nc1 [Example 139, 3-(5-Carbamoylpyridin-2-yl)-N-(5-cyanopyridin-2-yl)-N-cyclopropylpyrazolo[1,5-a]pyridine-5-carboxamide]"
21,2,"CNC(=O)c1ccc(-c2cnn3ccc(S(=O)(=O)N(c4ccc(C#N)cn4)C4CC4)cc23)cc1 [Example 164, 4-(5-(N-(5-Cyanopyridin-2-yl)-N-cyclopropylsulfamoyl)pyrazolo[1,5-a]pyridin-3-yl)-N-methylbenzamide]"
22,3,"N#Cc1ccc(N(C2CC2)S(=O)(=O)c2ccn3ncc(-c4ccc(C(N)=O)cc4)c3c2)nc1 [Example 165, 4-(5-(N-(5-cyanopyridin-2-yl)-N-cyclopropylsulfamoyl)pyrazolo[1,5-a]pyridin-3-yl)benzamide]"

# Same assay, conditions: Plasmodium falciparum; read-out: EC50, P. falciparum Proliferation Assay
row,EC50 [nM],Compound
1,< 5,"CN(C(=O)c1ccn2ncc(-c3cnc4[nH]ccc4c3)c2c1)c1ccc(C#N)cc1 [Example 40, N-(4-cyanophenyl)-N-methyl-3-(1H-pyrrolo[2,3-b]pyridin-5-yl)pyrazolo[1,5-a]pyridine-5-carboxamide]"
2,< 5,"CN(C(=O)c1ccn2ncc(-c3ccc(N)nc3)c2c1)c1ccc(C#N)cc1 [Example 41, 3-(6-aminopyridin-3-yl)-N-(4-cyanophenyl)-N-methylpyrazolo[1,5-a]pyridine-5-carboxamide]"
3,< 5,"C[C@@H](N)C(=O)Nc1ccc(-c2cnn3ccc(C(=O)N(C)c4ccc(C#N)cc4)cc23)cc1 [Example 44, (R)-3-(4-(2-aminopropanamido)phenyl)-N-(4-cyanophenyl)-N-methylpyrazolo[1,5-a]pyridine-5-carboxamide]"
4,< 5,"CN(C(=O)c1ccn2ncc(-c3cnc4[nH]ccc4c3)c2c1)c1ccc(C#N)cn1 [Example 53, N-(5-cyanopyridin-2-yl)-N-methyl-3-(1H-pyrrolo[2,3-b]pyridin-5-yl)pyrazolo[1,5-a]pyridine-5-carboxamide]"
5,< 5,"CN(C(=O)c1ccn2ncc(-c3cnc(N)nc3)c2c1)c1ccc(C#N)cc1 [Example 83, 3-(2-aminopyrimidin-5-yl)-N-(4-cyanophenyl)-N-methylpyrazolo[1,5-a]pyridine-5-carboxamide]"
